Key:
Assay type in all cases: cell-based
[1] = tested on: c-GMP in slices of thoracic aorta of rats; experiment: Cyclic-GMP measurement in aortic rat tissue (radioimmunoassay); details: for levels of cGMP as compared with GTN: isolated rat aorta; for cGMP Post-infusion / cGMP Pre-infusion: rat aorta; for cGMP Post-infusion: post-infusion (repeated treatment)
Method: GTN (10^−6 M) was added to the chamber and, 1 minute after exposure to the drug, rings (usually 3–5) were taken, wrapped with aluminum foil and immediately frozen in liquid nitrogen for storage. Control sample group was treated with the vehicle solution only. At the time of analysis, rings were thawed, blotted over a dry gauzed and weighted. A known weight of tissue was homogenized in 2 ml ice-cold modified Hank's balanced salt solution containing (in gram/liter) NaCl 8; KCl 0.4; glucose 1; KH2PO4 0.06; Na2HPO4 0.047; Phenol red 0.017 and further containing 25 mM EDTA (disodium salt). The homogenate was centrifuged at 4000 g (force units) for 10 minutes at 2–4° C. and the supernatant was thereafter transferred into fresh pre-cooled test tube containing 1 ml of acetonitrile. The tubes were vortex mixed for a few seconds and subsequently centrifuged at 4000 g for 5 minutes at 2–4° C., to remove the precipitated protein. Each supernatant was transferred into a clean test tube and evaporated to dryness under a stream of nitrogen at 55° C. The dry residue was reconstituted with 10 volumes of Tris-EDTA buffer pH 7.5 (0.05 M Tris containing 4 mM EDTA). Aliquots of 100 μl of the reconstituted solution in duplicate were used for c-GMP measurements using Amersham RIA kit, as is described in Haj-Yehia & Benet [Pharmacology, 1995, 273, 1, pp. 94–100]. Standard curves were plotted with six concentrations (0, 0.5, 1, 2, 4 and 8 pmoles of c-GMP per tube).
The NO-tolerance effect of GTN and NO-donor compounds according to the present invention was measured by following the production of c-GMP in slices of thoracic aorta of rats. Thus, the production of c-GMP was measured as described in the methods section above for the reference NO-donor compound GTN, and for the NO-donors of the present invention Pet-2, Pet-3, Pet-7, Pet-8, Pet-10, Pet-12, Pet-24, Pet-59, Pet-147, Pet-149, Pet-152, Pet-154 and Pet-155.

isolated rat aorta [2] = experiment: In vitro induction of tolerance and cross-tolerance: vasorelaxation of pre-exposed rat aortic rings; details: for EC50: Rattus norvegicus; for tolerance induction in vitro: rings pre-treated with epinephrine and then with the same compound (0.44 mM)
Method: Aortic rings were prepared as described hereinabove, and were exposed to 0.44 mM GTN (vehicle was water:ethanol:propyleneglycol at proportional ratio of 1:1:1) for 1 hour before CCRC construction, to thereby induce tolerance to nitroglycerine. At the end of the tolerance induction period, rings were thrice washed with the path buffer (Krebs-bicrbonate) every 15 minutes for the following hour and then CCRC for vasorelaxation on GTN-induced tolerance rings were constructed for GTN (pretreated versus untreated rings, FIG. 15), in order to verify the ability to induce and measure GTN tolerance induction in vitro
Attempted induction of tolerance to the NO-donating compounds of the present invention was performed under the same conditions as for GTN. Thus, in an exemplary experiment, rings were exposed to 0.44 mM solution of Pet-3 in the attempt to induce tolerance for Pet-3. CCRC were then measured for the vasorelaxing effect of Pet-3 on a group of rings which were pre-exposed to Pet-3 as to induce tolerance to Pet-3, and for an untreated control group. The above protocol was repeated with Pet-2, Pet-7, Pet-8, Pet-12, Pet-24, Pet-43, Pet-149 and Pet-152.
Cross-tolerance studies were conducted using the same technique described above for measuring vasorelaxation of aortic rings from rats. Two groups of aortic rings samples were pre-treated with GTN, then one group was measured for vasorelaxation by GTN and the second group for vasorelaxation by Pet-12, an exemplary NO-donor according to the present invention. For the opposite cross-tolerance studies, two groups of aortic rings samples were pre-treated with Pet-12, then one group was measured for vasorelaxation by GTN and the second group for vasorelaxation by Pet-12.

isolated rat aorta [3] = experiment: In vitro vasorelaxation of epinephrine-contracted rat aortic rings (CCRC); details: for vasorelaxation effect as compared with glyceryltrinitrate: isolated rat aorta, 1 μM epinephrine
Description: Male Sprague Dawley rats were anaesthetized using intraperitoneal injection of ketamine and xylazine (50 and 10 milligram per kilogram, respectively) and the thoracic aorta, the large upper portion of the descending aorta, starting at the caudal border of the chest bone, was removed thereafter, while carefully removing the paraadventetial tissue surrounding the vessel. Aortae were cut into rings of 4–5 millimeters and mounted onto the tissue path. The path buffer (Krebs-bicrbonate) was constantly gassed with carbogen and maintained at 37° C. The rings were preloaded under 2 g tension and equilibrated for 90 minutes, while refreshing the buffer every 15 minutes. After stabilization, the rings were contracted with epinephrine (1 μM). Cumulative Concentration-Response Curves (CCRC) were measured for the vasorelaxing effect induced by adding various concentrations, ranging from 10^−10 M to 10^−5 M of Pet-2, Pet-3, Pet-7, Pet-8, Pet-12, Pet-24, Pet-43, Pet-59, Pet-147, Pet-152 and Pet-154, and glyceryltrinitrate (GTN), according to the procedure described in Feelich et al., Molecular Pharmacology, 56:243–253 (1999). The vehicle, which was used for this experiment was water:ethanol:propyleneglycol at proportional ratio of 1:1:1.
The vasorelaxing effect of the thiazole-derived NO-donors according to the present invention was measured on slices of thoracic aorta of rats contracted with epinephrine, as described hereinabove.

[4] = vasorelaxation of rings pre-exposed to 0.44 mM of the same compound for 1 hour, given as negative log value, read-out: EC50 (converted)
[5] = vasorelaxation of rings pre-exposed to 0.44 mM of the same compound for 1 hour, read-out: Concentration
[6] = vasorelaxation, rat aortic rings contracted with 1 μM epinephrine, 10^−10 M to 10^−5 M, read-out: Concentration
[7] = vasorelaxation, rat aortic rings contracted with 1 μM epinephrine, given as negative log value, read-out: EC50 (converted)
[8] = Rattus norvegicus, read-out: Concentration

Row | Compound | levels of cGMP as compared with GTN [1] | EC50 (isolated rat aorta [2]; [4]) [nM] | EC50 (isolated rat aorta [2]; [5]) [nM] | vasorelaxation effect as compared with glyceryltrinitrate (isolated rat aorta [3]) | EC50 (isolated rat aorta [3]; [6]) [nM] | EC50 (isolated rat aorta [3]; [7]) [nM] | cGMP Post-infusion [1] [pmol/g tissue] | cGMP Pre-infusion [1] [pmol/g tissue] | EC50 (isolated rat aorta [2]; 1 h) [nM] | EC50 (isolated rat aorta [2]; 1 h, read-out: Concentration) [nM] | tolerance induction in vitro (isolated rat aorta [2]) | EC50 (isolated rat aorta [3]; Rattus norvegicus) [nM] | EC50 (isolated rat aorta [3]; [8]) [nM]
1 | Cc1nc(NC(=O)[C@@H](C)c2ccc(CC(C)C)cc2)sc1CCO[N+](=O)[O-] (stereo in doubt) [Pet-152, 2-(4-Isobutyl-phenyl)-N-[4-methyl-5-(2-nitrooxy-ethyl)-thiazol-2-yl]-propionamide] | increased | 50.1 | 50.1 | superior | 50.1 | 50.1 |  |  |  |  |  |  | 
2 | Cc1nc(C)c(CCO[N+](=O)[O-])s1 [Pet-3, 2,4-Dimethyl-5-(2-nitrooxy-ethyl)-thiazole] | increased |  |  | superior |  |  | 118 ± 10 | 122 ± 14 | 50.1 | 50.1 | absence of tolerance induction | 35.5 | 35.5
3 | Cc1nc(N(C)C)sc1CCO[N+](=O)[O-] [Pet-7, Dimethyl-[4-methyl-5-(2-nitrooxy-ethyl)-thiazol-2-yl]-amine] | increased | 35.5 | 50.1 | 10 fold | 28.2 | 28.2 | 123 ± 12 | 120 ± 12 |  |  | absence of tolerance induction |  | 
4 | Cc1nc(-c2ccccc2)sc1CCO[N+](=O)[O-] [Pet-8, 4-Methyl-5-(2-nitrooxy-ethyl)-2-phenyl-thiazole] | increased | 25.1 | 25.1 | superior | 28.2 | 20 | 136 ± 12 | 133 ± 10 |  |  |  |  | 
5 | Cc1nc(N)sc1CCO[N+](=O)[O-] [Pet-10, 4-methyl-5-(2-nitrooxy-ethyl)-thiazole-2-ylamine] | increased |  |  |  |  |  |  |  |  |  |  |  | 
6 | CNc1cncc(-c2nc(C)c(CCO[N+](=O)[O-])s2)n1 [Pet-24, Methyl-{6-[4-methyl-5-(2-nitrooxy-ethyl)-thiazol-2-yl]-pyrazin-2-yl}-amine] | increased | 251 | 251 |  | 200 | 200 | 112 ± 10 | 115 ± 14 |  |  | absence of tolerance induction |  | 
7 | Cc1nc(Nc2nc(C)c(CCO[N+](=O)[O-])s2)sc1CCO[N+](=O)[O-] [Pet-43, Bis-[4-methyl-5-(2-nitrooxy-ethyl)-thiazol-2-yl]-amine] |  |  |  | superior |  |  |  |  | 251 | 251 | absence of tolerance induction | 158 | 159
8 | Cc1nc(-c2ccc(C(F)(F)F)cc2)sc1CCO[N+](=O)[O-] [Pet-59, 4-Methyl-5-(2-nitrooxy-ethyl)-2-(4-trifluoromethyl-phenyl)-thiazole] | increased |  |  | superior | 79.4 | 79.4 |  |  |  |  |  |  | 
9 | CCNc1nc(C)c(CCO[N+](=O)[O-])s1 [Pet-147, Ethyl-[4-methyl-5-(2-nitrooxy-ethyl)-thiazol-2-yl]-amine] | increased |  |  |  | 31.6 | 31.6 |  |  |  |  |  |  | 
10 | Cc1nc(Nc2cccc3ccccc23)sc1CCO[N+](=O)[O-] [Pet-149, [4-Methyl-5-(2-nitrooxy-ethyl)-thiazol-2-yl]-naphthalen-1-yl-amine] | increased | 39.8 | 43.3 | superior |  |  | 115 ± 14 | 112 ± 12 |  |  | absence of tolerance induction |  | 
11 | Cc1nc(NC(=O)c2cccnc2)sc1CCO[N+](=O)[O-] [Pet-154, N-[4-methyl-5-(2-nitrooxy-ethyl)-thiazol-2-yl]-nicotinamide] | increased | 39.8 | 39.8 |  | 39.8 | 39.8 |  |  |  |  |  |  | 
12 | C=CCNc1nc(C)c(CCO[N+](=O)[O-])s1 [Pet-155, allyl-[4-methyl-5-(2-nitrooxy-ethyl)-thiazol-2-yl]-amine] | increased | 50.1 | 50.1 | superior |  |  |  |  |  |  |  |  | 

Source: patent publication US7189750B2, “Thiazole-based nitric oxide donors having at least two thiazole moieties and uses thereof” (priority 2004, dated 2007)
